Data published in ChEMBL document CHEMBL1152845, “Synthesis, cytotoxicity and apoptosis of naphthalimide polyamine conjugates as antitumor agents” (Eur J Med Chem, 2009).
The source made the active and inactive calls. The rule behind the calls is not given here.

Assays:
CHO = test: Cytotoxicity against CHO cells after 48 hrs by MTT assay; format: cell-based; conditions: Cricetulus griseus
[1] = Cytotoxicity against human QSG7701 cells after 48 hrs by MTT assay; format: cell-based; conditions: QSG7701, 48 h
B16 [2] = test: Cytotoxicity against mouse B16 cells after 48 hrs by MTT assay; format: functional, cell-based; conditions: B16, 48 h
Bel-7402 = test: Cytotoxicity against human Bel7402 cells after 48 hrs by MTT assay; format: functional, cell-based; conditions: Bel-7402, 48 h
K562 = test: Cytotoxicity against human K562 cells after 48 hrs by MTT assay; format: functional, cell-based; conditions: K562, 48 h
B16 [3] = test: Induction of apoptosis in mouse B16 cells assessed as increase in caspase-3 cleavage after 48 hrs by Western blot relative to control; format: functional, cell-based
B16 [4] = test: Induction of apoptosis in mouse B16 cells assessed as sub-G1 DNA content at 2.0 uM after 48 hrs by flow cytometry; format: functional
B16 [5] = test: Induction of apoptosis in mouse B16 cells assessed as sub-G1 DNA content at 0.5 uM after 48 hrs by flow cytometry; format: functional
B16 [6] = test: Induction of apoptosis in mouse B16 cells assessed as increase in caspase-8 cleavage after 48 hrs by Western blot relative to control; format: functional, cell-based
B16 [7] = test: Cell cycle arrest in mouse B16 cells by accumulation at G0/G1 phase at 2.0 uM after 48 hrs by flow cytometry; format: functional
B16 [8] = test: Cell cycle arrest in mouse B16 cells by accumulation at S phase at 1.0 uM after 48 hrs by flow cytometry; format: functional
B16 [9] = test: Cell cycle arrest in mouse B16 cells by accumulation at S phase at 2.0 uM after 48 hrs by flow cytometry; format: functional
B16 [10] = test: Induction of apoptosis in mouse B16 cells assessed as increase in mitochondrial cytochrome-C release after 48 hrs by Western blot relative to control; format: functional, cell-based
B16 [11] = test: Cell cycle arrest in mouse B16 cells by accumulation at G2/M phase at 1.0 uM after 48 hrs by flow cytometry; format: functional
Calf thymus DNA = test: Binding affinity to calf thymus DNA at 80 uM by spectrophotometry; format: nucleic-acid assay; conditions: Bos taurus
B16 [12] = test: Cell cycle arrest in mouse B16 cells by accumulation at G0/G1 phase at 1.0 uM after 48 hrs by flow cytometry; format: functional
B16 [13] = test: Induction of apoptosis in mouse B16 cells assessed as reduction in Bcl2 level after 48 hrs by Western blot relative to control; format: functional, cell-based
B16 [14] = test: Cell cycle arrest in mouse B16 cells by accumulation at G2/M phase at 0.5 uM after 48 hrs by flow cytometry; format: functional
B16 [15] = test: Induction of apoptosis in mouse B16 cells assessed as increase in caspase-9 cleavage after 48 hrs by Western blot relative to control; format: functional, cell-based
B16 [16] = test: Cell cycle arrest in mouse B16 cells by accumulation at S phase at 0.5 uM after 48 hrs by flow cytometry; format: functional
B16 [17] = test: Induction of apoptosis in mouse B16 cells assessed as increase in Bax level after 48 hrs by Western blot relative to control; format: functional, cell-based
B16 [18] = test: Cell cycle arrest in mouse B16 cells by accumulation at G2/M phase at 2.0 uM after 48 hrs by flow cytometry; format: functional
B16 [19] = test: Cell cycle arrest in mouse B16 cells by accumulation at G0/G1 phase at 0.5 uM after 48 hrs by flow cytometry; format: functional
B16 [20] = test: Induction of apoptosis in mouse B16 cells assessed as sub-G1 DNA content at 1.0 uM after 48 hrs by flow cytometry; format: functional
[21] = Cytotoxicity against mouse Mel-A cells after 48 hrs by MTT assay; format: cell-based

With `NCCCNCCCCNCCCN1C(=O)c2cccc3cccc(c23)C1=O` the IC50 (CHO) was 1.21 µM, the IC50 [1] was > 50 µM and the IC50 (B16 [2]) was 0.62 µM. For the same molecule, the IC50 (Bel-7402) was 1.06 µM and the IC50 (K562) was 1.64 µM.
With `O=C1NC(=O)c2cccc3cccc1c23` the IC50 (CHO) was > 50 µM, the IC50 (B16 [2]) was > 50 µM and the IC50 (K562) was > 50 µM.
In the case of `Cl.NCCCCNCCCCNCCCCN1C(=O)c2cccc3cccc(c23)C1=O`, the Activity (B16 [3]) is reported as “Dose-dependent effect”, the Activity (B16 [4]) is reported as 38.63% and the Activity (B16 [5]) is reported as 9.68%. For the same molecule, the IC50 (CHO) was 2.58 µM, the Activity (B16 [6]) was “Dose-dependent effect” and the Activity (B16 [7]) was 58.47%. The Activity (B16 [8]) was 9.71%, the Activity (B16 [9]) was 7.34% and the Activity (B16 [10]) was “Active”. For the same molecule, the Activity (B16 [11]) was 24.91%, the IC50 [1] was > 50 µM and the IC50 (B16 [2]) was 0.69 µM. For the same molecule, the Activity (Calf thymus DNA) was “Active”, the Activity (B16 [12]) was 65.38% and the Activity (B16 [13]) was “Active”. The IC50 (Bel-7402) was 3.56 µM, the Activity (B16 [14]) was 18.52% and the Activity (B16 [15]) was “Dose-dependent effect”. The Activity (B16 [16]) was 11.7%, the Activity (B16 [17]) was “Active” and the Activity (B16 [18]) was 34.19%. For the same molecule, the Activity (B16 [19]) was 69.78%, the IC50 (K562) was 1.16 µM and the Activity (B16 [20]) was 16.84%.
In the case of `NCCCNCCCCN1C(=O)c2cccc3cccc(c23)C1=O`, the IC50 (CHO) is reported as 20.7 µM, the IC50 (B16 [2]) is reported as 13.9 µM and the IC50 (K562) is reported as 11.4 µM.
Work on `NCCCCNCCCCNCc1c2ccccc2cc2ccccc12` yielded an IC50 (CHO) of 1.25 µM, an IC50 (B16 [2]) of 1.4 µM and an IC50 [21] of 8.3 µM. It also gave an IC50 (K562) of 0.95 µM.
In the case of `NCCCCNCCCCNCCCN1C(=O)c2cccc3cccc(c23)C1=O`, the IC50 (CHO) is reported as 9.09 µM, the IC50 (B16 [2]) is reported as 5.36 µM and the IC50 (K562) is reported as 9.08 µM.
With `NCCCNCCCCNCCCCN1C(=O)c2cccc3cccc(c23)C1=O` the IC50 (CHO) was 3.43 µM, the IC50 (B16 [2]) was 2.7 µM and the IC50 (K562) was 3.84 µM.
